Experimental data published in patent US9783527B2, “Indazole ureas and method of use” (AbbVie Inc., priority 2014, dated 2017).

Assays:
human Nav1.7 = human Nav1.7 (Homo sapiens (Human), UniProt Q15858); assay: FRET-based membrane potential assay, recombinant human sodium channel Nav1.7; format: cell-based; conditions: HEK293 cells stably expressing recombinant human Nav1.7; depolarization with veratridine (EC80) + scorpion venom
Method in brief: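 IC50 derived by four-parameter Hill fit of percent inhibition of depolarization, measured as peak F440-480/F565-625 ratio over baseline. Stable human Nav1.7 HEK293 cells, dye-loaded with CC2-DMPE and DiSBAC2(3)/VABSC-1 at room temperature, received compound 3 min ahead of veratridine (EC80) plus scorpion venom.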

human Nav1.8 = human Nav1.8 (Homo sapiens (Human), UniProt Q9Y5Y9); assay: FRET-based membrane potential assay, recombinant human sodium channel Nav1.8; format: cell-based; conditions: HEK293 cells stably expressing recombinant human Nav1.8; depolarization with veratridine (EC80) + scorpion venom
Procedure: FRET-Based Membrane Potential Assays.
Recombinant, Human Sodium Channel, Nav1.8.
Two days prior to the experiment, frozen HEK293 cells stably expressing recombinant human Nav1.8 (Essen, Ann Arbor, Mich.) were quickly thawed and plated at 22,500 cells/well in growth medium [MEM (Invitrogen #11095) with 10% FBS (Invitrogen #10082), 1 mM sodium pyruvate (Invitrogen, #C11360), 10 units/mL penicillin/10 U/mL streptomycin/29.2 μg/mL glutamine ((PSG 1%, Invitrogen #10378), 400 μg/mL zeocin (Invitrogen #R250) in black-walled, clear-bottom 384-well poly-D-lysine-coated assay plates (Greiner Bio-One, Frickenhausen, Germany) and incubated in a humidified 5% CO2 incubator at 37° C. On the day of the assay, medium was removed by aspiration, and cells were washed with assay buffer [HBSS (Invitrogen, Carlsbad, Calif.) containing 20 mM HEPES (Invitrogen, Carlsbad, Calif.)]. After washing, 30 μL assay buffer containing the fluorescent voltage-sensor probe CC2-DMPE (Invitrogen, Carlsbad, Calif.) at 20 μM and 0.01% pluronic F-127 (Invitrogen, Carlsbad, Calif.) was added to the cells. Cells were incubated for 40 minutes at room temperature in the dark. Following the incubation, the cells were washed and 30 μL assay buffer containing 2.5 μM DiSBAC2(3) substrate (Invitrogen, Carlsbad, Calif.) and 0.5 mM VABSC-1 (Invitrogen, Carlsbad, Calif.) was added to the cells. The cells were incubated for 60 minutes at room temperature in the dark. Fluorescence readings were made using a FLIPR®^TETRA (Molecular Devices, Sunnyvale Calif.) equipped with voltage-sensor probe optics. The depolarizing agent, veratridine (Sigma-Aldrich, St. Louis, Mo.), was made up at 3× concentrations in assay buffer containing 1 mg/mL scorpion venom (SVqq, from Leiurus quinquestriatus; Sigma-Aldrich, St. Louis, Mo.). The assay agonist/opener concentration was determined each day using a 6-point veratridine concentration curve in duplicate, tested with three concentrations of tetracaine (0.1, 0.06, 0.01 μM all in 0.03% dimethyl sulfoxide) and 0.03% dimethyl sulfoxide control in assay buffer. […] Test compounds in the daughter plate were diluted to (˜3×) solutions in assay buffer immediately before assaying. Using the FLIPR®^TETRA, 20 μL of the (3×) compound solutions were first added to the cells, then 20 μL of depolarizing solution (3×EC80 veratridine+SVqq) were added 3 minutes later to activate the channel. Changes in fluorescence were measured at wavelengths of 440-480 nm and 565-625 nm over the course of the experimental run. Membrane depolarization was expressed as a ratio of the maximum F440-480 nm/F565-625 nm reading above average baseline F440-480 nm/F565-625 nm reading. IC50 values were calculated from curve fits of the ratio data using a four-parameter logistic Hill equation (Accelrys Assay Explorer 3.3 Client, Accelrys, San Diego, Calif.) with percent inhibition plotted against compound concentration.

human Nav1.7, sequence (Q15858 whole entry): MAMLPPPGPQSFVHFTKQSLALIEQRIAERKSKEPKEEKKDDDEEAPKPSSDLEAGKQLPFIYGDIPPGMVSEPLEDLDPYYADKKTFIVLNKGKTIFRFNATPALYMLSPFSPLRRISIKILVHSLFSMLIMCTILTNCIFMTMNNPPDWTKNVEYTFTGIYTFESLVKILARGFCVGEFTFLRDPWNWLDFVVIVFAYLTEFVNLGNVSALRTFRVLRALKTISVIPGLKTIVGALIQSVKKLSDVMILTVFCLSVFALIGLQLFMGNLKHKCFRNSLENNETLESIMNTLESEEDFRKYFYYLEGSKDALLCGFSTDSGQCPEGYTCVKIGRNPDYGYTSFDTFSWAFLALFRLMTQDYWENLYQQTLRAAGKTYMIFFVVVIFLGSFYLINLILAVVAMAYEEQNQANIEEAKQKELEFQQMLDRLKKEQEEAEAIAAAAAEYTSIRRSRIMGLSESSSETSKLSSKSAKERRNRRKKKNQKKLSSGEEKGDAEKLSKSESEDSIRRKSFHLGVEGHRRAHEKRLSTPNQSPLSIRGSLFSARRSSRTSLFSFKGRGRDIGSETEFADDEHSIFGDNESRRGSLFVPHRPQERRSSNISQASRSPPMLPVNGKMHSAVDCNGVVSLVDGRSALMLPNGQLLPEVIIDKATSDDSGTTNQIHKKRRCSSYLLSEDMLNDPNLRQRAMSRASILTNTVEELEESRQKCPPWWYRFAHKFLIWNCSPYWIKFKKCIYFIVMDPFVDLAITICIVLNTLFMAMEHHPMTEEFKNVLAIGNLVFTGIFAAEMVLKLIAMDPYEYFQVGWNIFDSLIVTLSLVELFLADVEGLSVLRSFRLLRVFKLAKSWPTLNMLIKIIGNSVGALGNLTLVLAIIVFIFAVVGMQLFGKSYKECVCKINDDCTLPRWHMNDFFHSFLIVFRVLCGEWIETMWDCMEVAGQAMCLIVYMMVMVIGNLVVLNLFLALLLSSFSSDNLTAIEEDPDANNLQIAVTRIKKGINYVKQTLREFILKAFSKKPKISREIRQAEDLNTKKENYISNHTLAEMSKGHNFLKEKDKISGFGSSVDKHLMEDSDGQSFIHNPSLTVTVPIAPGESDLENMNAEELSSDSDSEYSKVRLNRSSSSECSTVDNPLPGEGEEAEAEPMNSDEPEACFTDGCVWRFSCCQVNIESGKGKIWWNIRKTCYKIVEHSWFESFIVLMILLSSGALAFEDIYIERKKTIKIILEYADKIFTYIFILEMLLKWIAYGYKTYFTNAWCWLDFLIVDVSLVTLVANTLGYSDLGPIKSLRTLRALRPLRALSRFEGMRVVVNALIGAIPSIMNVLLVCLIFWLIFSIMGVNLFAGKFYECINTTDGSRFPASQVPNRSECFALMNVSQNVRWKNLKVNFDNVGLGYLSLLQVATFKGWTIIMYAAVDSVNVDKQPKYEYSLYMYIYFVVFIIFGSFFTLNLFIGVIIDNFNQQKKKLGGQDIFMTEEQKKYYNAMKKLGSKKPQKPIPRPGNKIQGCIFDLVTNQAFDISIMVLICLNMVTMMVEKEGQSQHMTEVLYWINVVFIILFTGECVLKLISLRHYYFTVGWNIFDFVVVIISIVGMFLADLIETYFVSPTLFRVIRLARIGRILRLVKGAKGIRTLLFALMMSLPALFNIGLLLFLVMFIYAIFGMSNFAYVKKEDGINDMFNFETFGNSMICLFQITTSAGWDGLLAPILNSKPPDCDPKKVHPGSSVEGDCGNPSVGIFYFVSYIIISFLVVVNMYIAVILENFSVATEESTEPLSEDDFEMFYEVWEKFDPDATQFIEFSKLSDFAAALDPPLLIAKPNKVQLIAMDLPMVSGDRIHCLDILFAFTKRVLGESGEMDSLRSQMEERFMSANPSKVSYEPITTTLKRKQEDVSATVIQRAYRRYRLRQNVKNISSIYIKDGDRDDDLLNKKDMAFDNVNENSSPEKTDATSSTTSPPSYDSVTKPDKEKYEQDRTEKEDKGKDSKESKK
human Nav1.8, sequence (Q9Y5Y9 whole entry): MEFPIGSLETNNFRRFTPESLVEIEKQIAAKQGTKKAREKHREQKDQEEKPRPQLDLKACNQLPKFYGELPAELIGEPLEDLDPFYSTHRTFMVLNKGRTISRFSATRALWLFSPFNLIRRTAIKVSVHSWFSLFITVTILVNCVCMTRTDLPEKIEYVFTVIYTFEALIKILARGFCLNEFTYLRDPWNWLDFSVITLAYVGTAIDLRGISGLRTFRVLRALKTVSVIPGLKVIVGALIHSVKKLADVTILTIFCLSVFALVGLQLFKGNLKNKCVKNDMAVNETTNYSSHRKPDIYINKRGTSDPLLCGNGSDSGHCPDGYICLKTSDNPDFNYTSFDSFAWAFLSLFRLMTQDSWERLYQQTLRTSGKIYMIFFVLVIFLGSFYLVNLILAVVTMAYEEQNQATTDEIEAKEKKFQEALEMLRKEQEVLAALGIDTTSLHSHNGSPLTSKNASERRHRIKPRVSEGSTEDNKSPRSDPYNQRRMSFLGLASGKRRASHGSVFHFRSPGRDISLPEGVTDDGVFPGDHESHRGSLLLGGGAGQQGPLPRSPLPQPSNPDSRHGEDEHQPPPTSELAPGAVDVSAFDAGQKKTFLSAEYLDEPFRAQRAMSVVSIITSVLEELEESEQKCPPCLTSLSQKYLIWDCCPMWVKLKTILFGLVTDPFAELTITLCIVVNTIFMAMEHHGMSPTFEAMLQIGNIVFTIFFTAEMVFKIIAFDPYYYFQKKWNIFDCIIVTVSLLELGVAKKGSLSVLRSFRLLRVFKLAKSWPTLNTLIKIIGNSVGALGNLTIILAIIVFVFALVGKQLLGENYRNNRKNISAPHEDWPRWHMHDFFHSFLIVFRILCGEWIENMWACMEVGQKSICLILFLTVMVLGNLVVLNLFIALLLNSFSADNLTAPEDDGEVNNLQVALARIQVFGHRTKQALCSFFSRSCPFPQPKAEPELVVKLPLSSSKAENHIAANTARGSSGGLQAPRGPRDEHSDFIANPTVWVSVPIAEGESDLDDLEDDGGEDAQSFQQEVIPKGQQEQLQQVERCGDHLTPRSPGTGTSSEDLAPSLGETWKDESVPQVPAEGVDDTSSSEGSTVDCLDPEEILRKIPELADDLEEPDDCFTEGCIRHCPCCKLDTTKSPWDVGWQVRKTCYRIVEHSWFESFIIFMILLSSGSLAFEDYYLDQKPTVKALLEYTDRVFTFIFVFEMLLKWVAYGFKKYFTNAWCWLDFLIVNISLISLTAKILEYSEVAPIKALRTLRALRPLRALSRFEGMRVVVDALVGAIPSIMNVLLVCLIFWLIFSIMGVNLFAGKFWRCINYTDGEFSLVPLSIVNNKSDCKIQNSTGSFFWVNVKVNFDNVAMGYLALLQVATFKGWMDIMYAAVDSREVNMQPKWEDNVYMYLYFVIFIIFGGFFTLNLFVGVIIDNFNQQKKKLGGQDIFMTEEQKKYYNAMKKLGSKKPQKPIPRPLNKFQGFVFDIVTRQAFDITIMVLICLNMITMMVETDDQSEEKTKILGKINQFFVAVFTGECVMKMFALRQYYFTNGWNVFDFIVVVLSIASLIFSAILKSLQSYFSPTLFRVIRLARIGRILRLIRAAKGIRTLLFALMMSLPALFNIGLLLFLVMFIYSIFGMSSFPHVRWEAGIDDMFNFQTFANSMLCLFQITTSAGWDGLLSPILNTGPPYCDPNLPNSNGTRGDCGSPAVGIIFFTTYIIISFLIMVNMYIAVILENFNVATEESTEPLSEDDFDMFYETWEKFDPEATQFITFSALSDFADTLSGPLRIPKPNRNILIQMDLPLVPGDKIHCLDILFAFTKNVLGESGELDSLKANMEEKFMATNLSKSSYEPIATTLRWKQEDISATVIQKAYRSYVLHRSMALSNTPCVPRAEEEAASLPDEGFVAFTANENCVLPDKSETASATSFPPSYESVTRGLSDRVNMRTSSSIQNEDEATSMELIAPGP

| SMILES | IC50 (human Nav1.7) | IC50 (human Nav1.8) |
| --- | --- | --- |
| CC(C)(C)OC(=O)CCN1CCN(c2cccc3c2cnn3-c2ccccc2F)C1=O [Example 289, tert-butyl 3-{3-[1-(2-fluorophenyl)-1H-indazol-4-yl]-2-oxoimidazolidin-1-yl}propanoate] | 2710 nM | 2050 nM |
| O=C(Cn1ccn(-c2cccc3c2cnn3-c2ccccc2F)c1=O)N1CC[C@H](F)C1 [Example 11, 1-[1-(2-fluorophenyl)-1H-indazol-4-yl]-3-{2-[(3S)-3-fluoropyrrolidin-1-yl]-2-oxoethyl}-1,3-dihydro-2H-imidazol-2-one] | 483 nM | 1470 nM |
| CC(C)[C@H](NC(=O)CN1CCN(c2cccc3c2cnn3-c2ccccc2F)C1=O)C(=O)NC(C)(C)C [Example 346, N-tert-butyl-N^2-({3-[1-(2-fluorophenyl)-1H-indazol-4-yl]-2-oxoimidazolidin-1-yl}acetyl)-L-valinamide] | 2040 nM | 960 nM |
| O=C(CN1CCN(c2cccc3c2cnn3-c2ccccc2F)C1=O)N1CCCCCC1 [Example 303, 1-[2-(azepan-1-yl)-2-oxoethyl]-3-[1-(2-fluorophenyl)-1H-indazol-4-yl]imidazolidin-2-one] | 2460 nM | 930 nM |
| O=C1CC(NC(=O)CN2CCN(c3cccc4c3cnn4-c3ccccc3F)C2=O)C1 [Example 349, 2-{3-[1-(2-fluorophenyl)-1H-indazol-4-yl]-2-oxoimidazolidin-1-yl}-N-(3-oxocyclobutyl)acetamide] | 15100 nM | 7570 nM |
| CC1(F)CN(C(=O)CN2CCN(c3cccc4c3cnn4-c3ccccc3F)C2=O)C1 [Example 309, 1-[2-(3-fluoro-3-methylazetidin-1-yl)-2-oxoethyl]-3-[1-(2-fluorophenyl)-1H-indazol-4-yl]imidazolidin-2-one] | 695 nM | 725 nM |
| O=C(CN1CCN(c2cccc3c2cnn3-c2ccccc2F)C1=O)N1CC(F)C1 [Example 298, 1-[2-(3-fluoroazetidin-1-yl)-2-oxoethyl]-3-[1-(2-fluorophenyl)-1H-indazol-4-yl]imidazolidin-2-one] | 3370 nM | 1520 nM |
| O=C(CN1CCN(c2cccc3c2cnn3-c2ccccc2F)C1=O)N1CCCC(F)(F)C1 [Example 296, 1-[2-(3,3-difluoropiperidin-1-yl)-2-oxoethyl]-3-[1-(2-fluorophenyl)-1H-indazol-4-yl]imidazolidin-2-one] | 3180 nM | 1310 nM |
| O=C(CN1CCN(c2cccc3c2cnn3-c2ccccc2F)C1=O)N[C@H]1CCC[C@@H]1OCc1ccccc1 [Example 334, N-[(1S,2S)-2-(benzyloxy)cyclopentyl]-2-{3-[1-(2-fluorophenyl)-1H-indazol-4-yl]-2-oxoimidazolidin-1-yl}acetamide] | 1930 nM | 657 nM |
| CC(C)COC1COCC1N1CCN(c2cccc3c2cnn3-c2ccccc2F)C1=O (centres unmarked) [Example 336, 1-[1-(2-fluorophenyl)-1H-indazol-4-yl]-3-(4-isobutoxytetrahydrofuran-3-yl)imidazolidin-2-one] | 2140 nM | 867 nM |
| O=C(CN1CCN(c2cccc3c2cnn3-c2ccc(Cl)cc2)C1=O)N1CC[C@H](F)C1 [Example 338, 1-[1-(4-chlorophenyl)-1H-indazol-4-yl]-3-{2-[(3S)-3-fluoropyrrolidin-1-yl]-2-oxoethyl}imidazolidin-2-one] | 1060 nM | 2620 nM |
| CC(C)CS(=O)(=O)N1CC(N2CCN(c3cccc4c3cnn4-c3ccccc3F)C2=O)C1 [Example 285, 1-[1-(2-fluorophenyl)-1H-indazol-4-yl]-3-[1-(isobutylsulfonyl)azetidin-3-yl]imidazolidin-2-one] | 2520 nM | 1470 nM |
| CC(C)CO[C@H]1CCCC[C@@H]1N1CCN(c2cccc3c2cnn3-c2ccccc2F)C1=O [Example 280, 1-[1-(2-fluorophenyl)-1H-indazol-4-yl]-3-[(1S,2S)-2-isobutoxycyclohexyl]imidazolidin-2-one] | 518 nM | 10800 nM |
| O=C(CN1CCN(c2cccc3c2cnn3-c2ccccc2F)C1=O)NC1CCCC1 [Example 323, N-cyclopentyl-2-{3-[1-(2-fluorophenyl)-1H-indazol-4-yl]-2-oxoimidazolidin-1-yl}acetamide] | 1460 nM | 695 nM |
| CCN(CC)C(=O)CN1CCN(c2cccc3c2cnn3-c2ccccc2F)C1=O [Example 93, N,N-diethyl-2-{3-[1-(2-fluorophenyl)-1H-indazol-4-yl]-2-oxoimidazolidin-1-yl}acetamide] | 10700 nM | 5180 nM |
| O=C(CN1CCN(c2cccc3c2cnn3-c2ccccc2F)C1=O)NC1CCCC1(F)F (centres unmarked) [Example 347, N-(2,2-difluorocyclopentyl)-2-{3-[1-(2-fluorophenyl)-1H-indazol-4-yl]-2-oxoimidazolidin-1-yl}acetamide] | 3450 nM | 1290 nM |
| O=C(CN1CCN(c2cccc3c2cnn3-c2ccccc2F)C1=O)N1C[C@H]2CCC[C@H]2C1 [Example 342, 1-[1-(2-fluorophenyl)-1H-indazol-4-yl]-3-{2-[(3aR,6aS)-hexahydrocyclopenta[c]pyrrol-2(1H)-yl]-2-oxoethyl}imidazolidin-2-one] | 2210 nM | 746 nM |
| O=C(CN1CCN(c2cccc3c2cnn3-c2ccccc2F)C1=O)NCCC(F)(F)F [Example 343, 2-{3-[1-(2-fluorophenyl)-1H-indazol-4-yl]-2-oxoimidazolidin-1-yl}-N-(3,3,3-trifluoropropyl)acetamide] | 3060 nM | 1270 nM |
| O=C(/C=C/N1CCN(c2cccc3c2cnn3-c2ccccc2F)C1=O)N1CC[C@H](F)C1 [Example 327, 1-[1-(2-fluorophenyl)-1H-indazol-4-yl]-3-{(1E)-3-[(3S)-3-fluoropyrrolidin-1-yl]-3-oxoprop-1-en-1-yl}imidazolidin-2-one] | 2890 nM | 678 nM |
| O=C(CN1CCN(c2cccc3c2cnn3-c2ccccc2F)C1=O)NC1COC1 [Example 321, 2-{3-[1-(2-fluorophenyl)-1H-indazol-4-yl]-2-oxoimidazolidin-1-yl}-N-(oxetan-3-yl)acetamide] | 5790 nM | 5670 nM |
| O=C(CCN1CCN(c2cccc3c2cnn3-c2ccccc2F)C1=O)N1CCC[C@H](F)C1 [Example 318, 1-[1-(2-fluorophenyl)-1H-indazol-4-yl]-3-{3-[(3S)-3-fluoropiperidin-1-yl]-3-oxopropyl}imidazolidin-2-one] | 3140 nM | 3470 nM |
| CC(C)(C)OC(=O)CN1CCN(c2cccc3c2cnn3-c2ccccc2F)C1=O [Example 286, tert-butyl {3-[1-(2-fluorophenyl)-1H-indazol-4-yl]-2-oxoimidazolidin-1-yl}acetate] | 3170 nM | 3000 nM |
| O=C1N(c2cccc3c2cnn3-c2ccccc2F)CCN1[C@H]1CCCC[C@@H]1OCc1ccccc1 [Example 275, 1-[(1S,2S)-2-(benzyloxy)cyclohexyl]-3-[1-(2-fluorophenyl)-1H-indazol-4-yl]imidazolidin-2-one] | 1410 nM | 3700 nM |
| O=C(CN1CCN(c2cccc3c2cnn3-c2ccccc2F)C1=O)NCC1CCOC1 (centres unmarked) [Example 75, 2-{3-[1-(2-fluorophenyl)-1H-indazol-4-yl]-2-oxoimidazolidin-1-yl}-N-(tetrahydrofuran-3-ylmethyl)acetamide] | 7490 nM | 12100 nM |
| CC(C)(C)NC(=O)CN1CCN(c2cccc3c2cnn3-c2ccccc2F)C1=O [Example 339, N-tert-butyl-2-{3-[1-(2-fluorophenyl)-1H-indazol-4-yl]-2-oxoimidazolidin-1-yl}acetamide] | 5670 nM | 2670 nM |
